From patent US6376666B1 (Nauchno-Issledovatelsky Institut Farmakologii Rossiiskoi …, priority 1994, dated 2002)
Counter-ions that a name gives are not always drawn.

Key:
Balb/c mice = test: open-field test, Balb/c mice (passive type of emotional-stress reaction); assay type: in vivo; conditions: i.p., screening
Summary of the method: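 Male mice, 20-22 g, dosed i.p. in water 30 min before a 3-min open-field test after 1 min in darkness; peripheral, central, rearing and total activity plus defecations recorded; Student t-test. Anxiolysis read as Balb/c activation, sedation as C57B1/6 inhibition.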

cats = test: hemodynamics and activity of intact heart in cats under anesthesia; assay type: in vivo
Procedure: The effects of compounds on the hemodynamics and activity of intact heart were studied in cats under anesthesia. The experiments were carried out under conditions of open chest. The phase curve of aortic blood flow was the main index of cardiac activity. The compounds were administered i.v. in physiological solution. The t-Student' test was used to estimate the statistical significance.

[1] = test system: ventricular fibrillations; test: ventricular fibrillation, 7-min occlusion and reperfusion of coronary artery in anesthetized rats; assay type: in vivo; conditions: anesthetized rats i.v.; bonnecor 1,0, IX 2,0, X (printed) 1,0 mg/kg
Procedure: The experiments were conducted in male rats weighing 180-240 g and anesthetized with nembutal (60 mg/kg i.v.) with open chest and artificial respiration. The occlusion of the left coronary artery was performed 1-2 min after experiment beginning with following reperfusion after 7 min. During this period time according to literature data [Krzeminski T., Grzyb J., Kurcok A., Brus R.: Pol.J.Pharmacol., 1992, 44, Suppl., p.169-170] the maximum number of ventricular fibrillations (70-100%) were registered. The ECG in the 2nd standard lead was recorded in “Mingograph-81”. The number of ventricular fibrillations during occlusion and reperfusion periods, the life menacing arrhythmia (fibrillation+paroxysmal ventricular tachycardia) and total number of arrhythmias were calculated. The known antiarrhythmic drug bonnecor was used as the reference agent [Grigorieva E. K., Gorbunova V. V. in: “New antiarrhythmic drug—bonnecor (the pharmacology and clinical usage)”, M., 1993, p.64-67]. The compounds were injected i.v. at the following doses: bonnecor—1,0 mg/kg, compound IX—2,0 mg/kg, compound XX—1,0 mg/kg. The control animals were administered with the equivalent volume of physiological solution (1,0 ml/kg). 4 series of experiments were carried out in 80 rats. The results were assessed according to the method of point scale: the absence of arrhythmia—0 point, extrasystole—1 point, paroxysmal ventricular tachycardia—2 points, ventricular fibrillation—3 points, fibrillation observed during the occlusion of coronary vessel—4 points. For statistical analysis the Fisher's exact probability and Wilconson's methods were used.
[Krzeminski T., Grzyb J., Kurcok A., Brus R.: Pol.J.Pharmacol., 1992, 44, Suppl., p.169-170] have shown that 7 min occlusion with following reperfusion of coronary artery in anesthetized rats produced the ventricular fibrillation (68-100%). Defibrotide and prostacycline decreased the number of fibrillations. We have studied the antifibrillator activity of some derivatives of 2-mercaptbenzimidazole in this model with disturbances of heart rhythm. Bonnecor (1,0 mg/kg) was used as the reference drug. It is well known that this agent produces apronouncedantifibrillatoryactivity [Grigorieva E. K., Gorbunova V. V. in: “New antiarrhythmic drug-bonnecor (the pharmacology and clinical usage)”, M., 1993, p.64-67].

[2] = test system: calcium chloride arrhythmia; test: calcium chloride arrhythmia in concious rats; assay type: in vivo; conditions: Rattus norvegicus, iv, concious rats, given 2 min prior calcium chloride 250-300 mg/kg i.v.; read-out: Calcium chloride arrhythmia ED50 (mean effective dose)
Procedure: In these experiments the outbred concious rats 180-200 g of weight were injected with 10% solution of calcium chloride in tail vein at dose range of 250-300 mg/kg.

adrenaline arrhythmia = adrenaline arrhythmia in concious rabbits; conditions: given 2 min before arrhythmogenic dose of adrenaline
Procedure: Adrenaline arrhythmia. The 0,1% solution of adrenaline hydrochloride was injected to the marginal ear's vein of rabbit weighing 2,5-3,0 kg at dose ranging 120-150 mcg/kg which induced cardiac rhythm disturbances of two types.
The tested compound was injected in 3 ml of distilled water 30 min after determination of arrhythmogenic dose of adrenaline and the ECG was recorded in 2nd standard lead. 2 min after administration of tested compound the arrhythmogenic dose of adrenaline was injected.

[3] = test system: ischemized myocardium of cats; test: ST-segment elevation during 5 min occlusions of coronary artery (acute coronary deficiency); assay type: in vivo; conditions: cats, bolus injection
Procedure: These experiments were conducted in cats weighing 2,5-4,0 kg under anasthesia by i.v. injection of nembutal (40 mg/kg) in open chest conditions. Epicardium electrogram in 3-4 leads was registered in “Mingograph-81”. The value of mean elevation of ST-segment during 5 min occlusions of anterior left descending coronary artery with 15 min reperfusions between them was the main index of intensity of reversible ischemized damage of myocardium.
The statistical calculation was carried out with non-parametric Wilcocson method for associated variants.

[4] = test system: ischemized myocardium of cats; test: contractile and pump functions and ATP level of ischemized myocardium (20-40 min occlusion, reperfusion); assay type: in vivo
Procedure: The effects of this compound on contractile and pump functions of ischemized myocardium were studied in cats weighing 3,0-4,5 kg under anesthesia with nembutal (40 mg/kg). […] The phase curve of blood flow in ascending part of the aortic arch was recorded with electromagnetic blood flowmeter MFV-1200 (“Nihon-Kohden”, Japan). Hemodynamics, heart activity values and the number of arrhythmia were calculated. In the experiments with 40 min ischemia immediately after 60 min the intact and ischemized zones of left ventricle were dissected and freezed in liquid nitrogen. ATP level was measured using hexokinase method in these zones. 4 series of experiments (2-control and 2-basic) were conducted in 12 cats in each. For statistical calculation the t-Student and Fisher's precision test were used.

[5] = test system: ventricular disturbances of heart rhythm; test: arrhythmia in concious dogs according to Harris; assay type: in vivo; conditions: for % ectopic contractions, change vs basal level / Heart rate, change vs basal level: concious dogs, 2 mg/kg i.v.
Procedure: The arrhythmia in concious dogs according to Harris. The experiments were conducted in mongrel dogs of either sex weighing 9-14 kg. Under anesthesia (40 mg/kg of nembutal i.v.) and artificial respiration the two-step occlusion of the left anterior descending coronary artery was performed. The constant ECG disturbances of the heart rhythm were recorded after 24 hours. […] T-Student' test was used for statistical calculation.

[6] = 1.0 mg/kg i.v., 0.25 min after injection
[7] = cats, 1.0 mg/kg i.v., after 2 min
[8] = cats, 1.0 mg/kg i.v., after 5 min
[9] = cats, 1.0 mg/kg i.v., after 10 min
[10] = cats, 1.0 mg/kg i.v., after 20 min
[11] = cats, 1.0 mg/kg i.v., after 30 min

In the case of `C=CCSc1nc2ccc(OCC)cc2[nH]1` (as salt: hydrochloride) [IV, 2-Allylthio-5-ethoxybenzimidazole], the melting point is reported as 252 to 254 °C (dec.).
For `CCOc1ccc2nc(SCCN3CCCC3)[nH]c2c1` [Compound X, 2-[2-(Pyrrolidino)ethylthio]-5-ethoxybenzimidazole], the “effect on the behavior (locomotor activity) of Balb/c mice in open-field test, in words” value (Balb/c mice) was “neither activatory nor inhibitory effects”, the “effect on heart rate, in words” value (cats; cats i.v., doses of 0,5 mg/kg-2,0 mg/kg) was “small and short bradycardia” and the “antifibrillatory effect, in words” value [1] was “trend to decrease the number of ventricular fibrillations”.
With `CCOc1ccc2nc(SCCN3CCCC3)[nH]c2c1` (as salt: hydrochloride) [Compound X, 2-[2-(Pyrrolidino)ethylthio]-5-ethoxybenzimidazole] the melting point was 127 to 130 °C (dec.).
For `CC(C)NCC(O)COc1cccc2ccccc12` (stereo not shown) [Propranolol, propranolol, reference compound], the ED50 [2] was 0.8 mg/kg and the “Adrenaline arrhythmia. Range of active doses” value (adrenaline arrhythmia) was 0.3 to 1.0 mg/kg.
For `CCSc1nc2cc(C)c(C)cc2[nH]1` [Compound I, 2-Ethylthio-5,6-dimethylbenzimidazole], the “effect on the behavior (locomotor activity) of Balb/c mice in open-field test, in words” value (Balb/c mice) was “neither activatory nor inhibitory effects” and the melting point was 123 to 124 °C.
Work on `C=CCSc1nc2cc(C)c(C)cc2[nH]1` (as salt: hydrochloride) [III, 2-Allylthio-5,6-dimethylbenzimidazole] yielded a melting point of 119 to 120 °C.
With `CCN(CC)CCSc1nc2cc(C)c(C)cc2[nH]1.Cl.Cl` [XXIII, dihydroxychloride 2-[2-(diethylamino)ethylthio]-5,6-dimethylbenzimidazole, reference compound] the “Cardiac volume, change from basal level” value (cats; [6]) was “+3.6 ± 3.5%”, the “Heart rate, change from basal level” value (cats; [6]) was −14.6 ± 1.2 % and the “Mean blood flow accelaration, change from basal level” value (cats; [6]) was “+2.1 ± 4.9%”. The “Mean blood pressure, change from basal level” value (“Mean blood pressure, change” below) (cats; [6]) was −13.9 ± 2.9 %, the “effect on contractile function of heart, in words” value (cats; cats i.v., same doses as bradycardia) was “inhibition of contractile function of heart” and the “effect on heart rate, in words” value (cats; cats i.v., VIII 1,0, IX 0,5 and 1,0, XX 1,0 and 2,0 mg/kg, XXIII 1.0, verapamil 0.5 mg/kg) was “expressed and long bradycardia”. The “Cardiac volume, change from basal level” value (cats; [7]) was −3.6 ± 2.0%, the “Heart rate, change from basal level” value (cats; [7]) was −11.7 ± 1.3 % and the “Mean blood flow accelaration (aortic), change from basal level” value (cats; [7]) was −4.9 ± 4.7%. The “Mean blood pressure, change” value (cats; [7]) was −0.2 ± 4.0%, the “Cardiac volume, change from basal level” value (cats; [8]) was −0.6 ± 2.3% and the “Heart rate, change from basal level” value (cats; [8]) was −7.9 ± 1.6 %. For the same molecule, the “Mean blood flow accelaration (aortic), change from basal level” value (cats; [8]) was −1.0 ± 5.0%, the “Mean blood pressure, change” value (cats; [8]) was “+3.4 ± 2.5%” and the “Cardiac volume, change from basal level” value (cats; [9]) was −0.7 ± 3.6%. The “Heart rate, change from basal level” value (cats; [9]) was −5.1 ± 1.2 %, the “Mean blood flow accelaration (aortic), change from basal level” value (cats; [9]) was “+8.1 ± 3.0 %” and the “Mean blood pressure, change” value (cats; [9]) was “+3.8 ± 3.2%”. The “Cardiac volume, change from basal level” value (cats; [10]) was −4.2 ± 2.4%, the “Heart rate, change from basal level” value (cats; [10]) was −3.8 ± 1.5 % and the “Mean blood flow accelaration (aortic), change from basal level” value (cats; [10]) was “+4.3 ± 2.7%”. For the same molecule, the “Mean blood pressure, change” value (cats; [10]) was “+2.8 ± 2.8%”, the “Cardiac volume, change from basal level” value (cats; [11]) was −4.5 ± 3.5% and the “Heart rate, change from basal level” value (cats; [11]) was −4.1 ± 1.0 %. The “Mean blood flow accelaration (aortic), change from basal level” value (cats; [11]) was −2.4 ± 3.4%, the “Mean blood pressure, change” value (cats; [11]) was “+2.9 ± 3.2%” and the “duration of effect on ST-segment elevation after bolus injection, in words” value [3] was “very short”. For the same molecule, the “effect on inhibition of contractile function of myocardium induced by ischemic damage, in words” value ([4]; 20 min occlusion, 30 min reperfusion, 1,0 mg/kg bolus +50 mcg/kg/min i.v. during 30 min) was “observable only during occlusion period and first 10 min of reperfusion”, the “effect on ATP level in ischemized myocardium, in words” value ([4]; 40 min occlusion, 60 min reperfusion, hexokinase method) was “did not change the ATP level” and the “% ectopic contractions, change vs basal level” value (shortened to “% ectopic contractions, change”) ([5]; after 1 min) was −57.4 ± 17.6 %. For the same molecule, the “Heart rate, change vs basal level” value ([5]; after 1 min) was −19.0 ± 2.5 beats/min, the “% ectopic contractions, change” value ([5]; after 3 min) was −66.2 ± 18.1 % and the “% ectopic contractions, change” value ([5]; after 5 min) was −54.6 ± 16.8 %. The “Heart rate, change vs basal level” value ([5]; after 5 min) was −30.4 ± 4.5 beats/min, the “% ectopic contractions, change” value ([5]; after 10 min) was −22.6 ± 8.9 % and the “% ectopic contractions, change” value ([5]; after 15 min) was −24.8 ± 11.1 %. For the same molecule, the “Heart rate, change vs basal level” value ([5]; after 15 min) was −29.0 ± 5.5 beats/min, the “% ectopic contractions, change” value ([5]; after 30 min) was −8.8 ± 4.7% and the “Heart rate, change vs basal level” value ([5]; after 30 min) was −14.0 ± 4.8 beats/min. The “% ectopic contractions, change” value ([5]; after 60 min) was −5.2 ± 2.6%, the “Heart rate, change vs basal level” value ([5]; after 60 min) was −12.0 ± 5.5 beats/min and the “duration of antiarrhythmic effect” value ([5]; concious dogs, 2,0 mg/kg i.v.) was “shorter”.
Molecule `CCCSc1nc2cc(C)c(C)cc2[nH]1` [II, 2-Propylthio-5,6-dimethylbenzimidazole] has a melting point of 122 to 123 °C.
With `Cc1cc2nc(SCCN3CCCC3)[nH]c2cc1C` (as salt: hydrochloride) (hydrate or solvate) [XIII, 2-[2-(Pyrrolidino)ethylthio]-5,6-dimethylbenzimidazole] the melting point was 115 to 116 °C (dec.).
`CCN(CC)CCSc1nc2ccccc2n1CCc1ccccc1` (as salt: hydrochloride) [XXI, 1-(β-Phenylethyl)-2-[2-(diethylamino)ethylthio]benzimidazole] gave a melting point of 129 to 130 °C.
